From paper PMC9396645 (Frontiers in Chemistry, 2022)
Like-named read-outs stand apart in the source and are kept apart here. Blank lines part the entries; values can stand above or below the molecule they belong to.

Experiments:
C4-2 cells = test: Internalization efficiency / specific cell uptake in C4-2 cells; format: cell-based, human
Protocol: The specific internalization ratio was determinated in 24-well plates. The plates were previously coated with 0.1% poly-L-lysine in PBS for 20 min and washed with PBS once. C4-2 cells (10^5 cells per analysis) were added to each well and equilibrated overnight. The cells were incubated for 45 min with 250 µL of a 30 nM solution of the ^68Ga-labeled compounds either in a water bath at 37°C or on ice. The PSMA-receptor-blocking agent 2-(phosphonomethyl)pentanedioic acid (2-PMPA; 500 μM; Axxora) was used to verify the specificity of the cellular uptake of the novel compounds. The cells were washed thrice (using 1 ml of ice-cold PBS), followed by an incubation with 0.5 ml of a glycine solution (50 mM in HCl at a pH of 2.8) for 5 min, washed once with 1 ml of ice-cold PBS, and finally lysed with 0.5 ml of 0.3 M NaOH. The lysate was collected, and the radioactivity was measured in a gamma-counter. Triplicate measurements were performed for all experiments.

[1] = system: C4-2 tumor bearing BALB/c nu/nu mice; test: Small-animal PET imaging in C4-2 tumor bearing mice; format: in vivo, mouse; conditions: mean SUV from PET, 2 h p.i.
Source text: (§1) Athymic male nude mice (BALB/c nu/nu) were purchased from Charles River at 4‒5 weeks of age (19–23 g). The mice were kept under pathogen-free conditions for 1 week prior to the study. The mice had free access to water and food and were housed with a 12-h/12-h light/dark cycle. The xenografts required for positron emission tomography (PET) imaging and biodistribution studies were obtained by inoculation of 5 × 10^7 C4-2 cells in 50% Matrigel in Opti-MEM I (1 ×) medium. For this purpose, the mice were anesthetized with 2% sevoflurane, and inoculation was performed subcutaneously on the right trunk. When the size of the tumor was approximately 1 cm^3, the studies were performed.
For small-animal PET imaging, the different ^68Ga-labeled PSMA ligands (0.5 nmol, 20 MBq in approximately 100 µL 0.9% saline) were injected into C4-2 tumor bearing mice. The dynamic PET was recorded in a small animal PET scanner (Siemens Inveon D-PET). The standardized uptake values (SUVs) were obtained from conventional (non-dynamic) PET images. The formula for the SUV was SUV=activity in ROI (Bq/ml) × animal weight (g)/injected dose(Bq)
Manual delineation of the respective appropriate whole organ (heart, kidneys, bladder, tumor, with an approximate volume of 100–500 µL) yielded the volumes of interest (VOIs). For this purpose, whole organs or parts of the organ/tissue (liver and muscle) were used. The images were reconstructed based on the procedure: OSEM 3D/SP MAP with 16 subsets, two iterations, and an image x-y size: 256, image z size: 161. The data were not modified with a post-processing filter. Analysis of the images and time-activity curves (TACs) was conducted on the Inveon™ Acquisition Workplace (IAW) from Siemens IRW 4.1. […] […] The mean SUVs were plotted over time in order to compare the different radiotracers.

prostate cancer patients [2] = test: PSMA-PET/CT of prostate cancer patients; format: in vivo, human; conditions: patient PET/CT, 20 nmol
Protocol: Diagnostic PSMA-PET/computed tomography (CT) examinations were performed 1 and 3 h after antecubital injection of 339 MBq/20 nmol ^68Ga-CA028 or 295 MBq/20 nmol ^68Ga-CA030 per patient, respectively. The method for assessing the biodistribution was performed as previously described by Afshar-Oromieh et al. ([Afshar-Oromieh et al., 2015b]). Applying the clinical standard software Syngo (Siemens), which was used to define the VOIs in the PET images, the activity distributions of the source organs was determined. This reference ([Afshar-Oromieh et al., 2015b]) was also used as a standard of reference for ^68Ga-PSMA-617 (Table 3).

[3] = system: C4-2 tumor bearing BALB/c nu/nu mice; test: Biodistribution (organ distribution) in C4-2 tumor-bearing mice; format: in vivo, mouse; conditions: tumor bearing mice, n = 3
Source text: as §1
Based on the results of the PET imaging, ^68Ga-CA028 and ^68Ga-CA030, the most promising compounds, were chosen for biodistribution studies in C4-2 tumor-bearing mice. The labeled compound (0.05 nmol, 20 MBq) was administered to the mice via tail vein injection. Animals were sacrificed and organs were harvested at the following time points: 20 min, 1, 2, and 4 h p.i. The organs were dissected and weighed, the activity was measured with a γ-counter, and the % ID/g was calculated.

prostate cancer patients [4] = system: prostate cancer patients; design: method as in earlier work; conditions: patients PET/CT, ref Afshar-Oromieh et al. (2015a) and Afshar-Oromieh et al. (2015b), cited from earlier work
[5] = ^68Ga-labeled compounds 30 nM, 45 min, 37°C, specificity by 2-PMPA 500 μM, mean ± SD (n = 3)

SMILES: O=C(O)CC[C@H](NC(=O)N[C@@H](CCCCNC(=O)[C@H](Cc1ccc2ccccc2c1)NC(=O)[C@H]1CC[C@H](CNC(=O)CN2CCN(CC(=O)O)CCN(CC(=O)O)CCN(CC(=O)O)CC2)CC1)C(=O)O)C(=O)O [PSMA-617, reference compound]
- specific internalization in C4-2 cells (C4-2 cells; Table 2): 15.6 % ID/10^6 cells
- Specific cell surface (C4-2 cells; [5]): 45.18 ± 3.61 %IA/10^6cells
- Specific lysate (internalization) (C4-2 cells; [5]): 15.55 ± 3.07 %IA/10^6 cells

- tumor-to-kidney ratio [1]: 0.52
SMILES: O=C([O-])CN1CCN(CC(=O)[O-])CCN(C(CCC(=O)NCc2ccc(NC(=S)NCC3CCC(C(=O)NC(Cc4ccc5ccccc5c4)C(=O)NCCCCC(NC(=O)NC(CCC(=O)O)C(=O)O)C(=O)O)CC3)cc2)C(=O)O)CCN(CC(=O)[O-])CC1.[68Ga+3] (stereo not shown) [^68Ga-CA029]
- Specific lysate (internalization) (C4-2 cells; [5]): 44.3 ± 3.9 %IA/10^6 cells

- SUV mean Bone metastasis (prostate cancer patients [2]; first listed bone metastasis, 1 h p.i.): 27.2
- SUV mean Bone metastasis (prostate cancer patients [2]; first listed bone metastasis, 3 h p.i.): 37.7
- SUV mean Blood pool, mediastinal (prostate cancer patients [2]; 1 h p.i.): 5.6
- SUV mean Colon (prostate cancer patients [2]; 1 h p.i.): 4.9
- SUV mean Gluteal muscle (prostate cancer patients [2]; 1 h p.i.): 0.8
- SUV mean Kidneys (prostate cancer patients [2]; 1 h p.i.): 13.4
- SUV mean Lacrimal gland (prostate cancer patients [2]; 1 h p.i.): 7.1
- SUV mean Liver (prostate cancer patients [2]; 1 h p.i.): 5.8
- SUV mean Nasal mucosa (prostate cancer patients [2]; 1 h p.i.): 3.3
- SUV mean Parotid gland (prostate cancer patients [2]; 1 h p.i.): 6.1
- SUV mean Proximal small intestine (prostate cancer patients [2]; 1 h p.i.): 4.1
- SUV mean Spleen (prostate cancer patients [2]; 1 h p.i.): 7.2
- SUV mean Sublingual gland (prostate cancer patients [2]; 1 h p.i.): 4.1
- SUV mean Submandibular gland (prostate cancer patients [2]; 1 h p.i.): 8.7
- SUV mean Blood pool, mediastinal (prostate cancer patients [2]; 3 h p.i.): 4.5
- SUV mean Colon (prostate cancer patients [2]; 3 h p.i.): 4.7
- SUV mean Gluteal muscle (prostate cancer patients [2]; 3 h p.i.): 0.7
- SUV mean Kidneys (prostate cancer patients [2]; 3 h p.i.): 16.5
- SUV mean Lacrimal gland (prostate cancer patients [2]; 3 h p.i.): 9.0
- SUV mean Liver (prostate cancer patients [2]; 3 h p.i.): 5.9
- SUV mean Nasal mucosa (prostate cancer patients [2]; 3 h p.i.): 3.8
- SUV mean Parotid gland (prostate cancer patients [2]; 3 h p.i.): 6.7
- SUV mean Proximal small intestine (prostate cancer patients [2]; 3 h p.i.): 5.0
- SUV mean Spleen (prostate cancer patients [2]; 3 h p.i.): 6.1
- SUV mean Sublingual gland (prostate cancer patients [2]; 3 h p.i.): 4.9
- SUV mean Submandibular gland (prostate cancer patients [2]; 3 h p.i.): 11.3
- SUV mean Bone metastasis (prostate cancer patients [2]; second listed bone metastasis, 1 h p.i.): 30.9
- SUV mean Bone metastasis (prostate cancer patients [2]; second listed bone metastasis, 3 h p.i.): 32.6
- SUV mean Bone metastasis (prostate cancer patients [2]; third listed bone metastasis, 1 h p.i.): 31.0
- SUV mean Bone metastasis (prostate cancer patients [2]; third listed bone metastasis, 3 h p.i.): 33.1
- Organ distribution Blood ([3]; 20 min): 4.33 ± 0.51 % ID/g
- Organ distribution Brain ([3]; 20 min): 0.08 ± 0.01 % ID/g
- Organ distribution Heart ([3]; 20 min): 1.29 ± 0.30 % ID/g
- Organ distribution Kidneys ([3]; 20 min): 63.89 ± 5.72 % ID/g
- Organ distribution Liver ([3]; 20 min): 1.04 ± 0.18 % ID/g
- Organ distribution Lung ([3]; 20 min): 2.63 ± 0.89 % ID/g
- Organ distribution Muscle ([3]; 20 min): 1.39 ± 1.30 % ID/g
- Organ distribution Small intestine ([3]; 20 min): 1.00 ± 0.38 % ID/g
- Organ distribution Spleen ([3]; 20 min): 8.37 ± 0.47 % ID/g
- Organ distribution Tumor ([3]; 20 min): 5.17 ± 1.48 % ID/g
- Organ distribution Blood ([3]; 1 h): 3.59 ± 1.52 % ID/g
- Organ distribution Brain ([3]; 1 h): 0.08 ± 0.02 % ID/g
- Organ distribution Heart ([3]; 1 h): 1.03 ± 0.36 % ID/g
- Organ distribution Kidneys ([3]; 1 h): 46.39 ± 23.44 % ID/g
- Organ distribution Liver ([3]; 1 h): 1.52 ± 0.61 % ID/g
- Organ distribution Lung ([3]; 1 h): 2.74 ± 0.72 % ID/g
- Organ distribution Muscle ([3]; 1 h): 0.63 ± 0.21 % ID/g
- Organ distribution Small intestine ([3]; 1 h): 0.92 ± 0.37 % ID/g
- Organ distribution Spleen ([3]; 1 h): 2.86 ± 1.86 % ID/g
- Organ distribution Tumor ([3]; 1 h): 5.36 ± 2.21 % ID/g
- Organ distribution Blood ([3]; 2 h): 1.42 ± 0.61 % ID/g
- Organ distribution Brain ([3]; 2 h): 0.04 ± 0.02 % ID/g
- Organ distribution Heart ([3]; 2 h): 0.40 ± 0.09 % ID/g
- Organ distribution Kidneys ([3]; 2 h): 20.19 ± 7.92 % ID/g
- Organ distribution Liver ([3]; 2 h): 0.81 ± 0.15 % ID/g
- Organ distribution Lung ([3]; 2 h): 1.08 ± 0.42 % ID/g
- Organ distribution Muscle ([3]; 2 h): 0.28 ± 0.03 % ID/g
- Organ distribution Small intestine ([3]; 2 h): 0.75 ± 0.06 % ID/g
- Organ distribution Spleen ([3]; 2 h): 1.39 ± 0.47 % ID/g
- Organ distribution Tumor ([3]; 2 h): 4.31 ± 0.30 % ID/g
- Organ distribution Blood ([3]; 4 h): 0.39 ± 0.14 % ID/g
- Organ distribution Brain ([3]; 4 h): 0.01 ± 0.00 % ID/g
- Organ distribution Heart ([3]; 4 h): 0.16 ± 0.05 % ID/g
- Organ distribution Kidneys ([3]; 4 h): 6.17 ± 0.82 % ID/g
- Organ distribution Liver ([3]; 4 h): 0.50 ± 0.14 % ID/g
- Organ distribution Lung ([3]; 4 h): 0.34 ± 0.10 % ID/g
- Organ distribution Muscle ([3]; 4 h): 0.17 ± 0.02 % ID/g
- Organ distribution Small intestine ([3]; 4 h): 0.21 ± 0.09 % ID/g
- Organ distribution Spleen ([3]; 4 h): 0.48 ± 0.09 % ID/g
- Organ distribution Tumor ([3]; 4 h): 2.69 ± 0.88 % ID/g
- tumor-to-kidney ratio [1]: 0.33
SMILES: O=C([O-])CN1CCN(CC(=O)[O-])CCN(CC(=O)O)C(Cc2ccc(NC(=S)NCC3CCC(C(=O)NC(Cc4ccc5ccccc5c4)C(=O)NCCCCC(NC(=O)NC(CCC(=O)O)C(=O)O)C(=O)O)CC3)cc2)CN(CC(=O)[O-])CC1.[68Ga+3] (stereo not shown) [^68Ga-CA030]
- Specific lysate (internalization) (C4-2 cells; [5]): 53.8 ± 5.4 %IA/10^6 cells

SMILES: O=C([O-])CN1CCN(CC(=O)[O-])CCN(CC(=O)NCC2CCC(C(=O)NC(Cc3ccc4ccccc4c3)C(=O)NCCCCC(NC(=O)NC(CCC(=O)O)C(=O)O)C(=O)O)CC2)CCN(CC(=O)[O-])CC1.[68Ga+3] (stereo not shown) [^68Ga-PSMA-617]
- SUV mean Blood pool, mediastinal (prostate cancer patients [4]; 1 h p.i.): 2.5
- SUV mean Bone metastasis (prostate cancer patients [4]; 1 h p.i.): 9.4
- SUV mean Colon (prostate cancer patients [4]; 1 h p.i.): 3.5
- SUV mean Gluteal muscle (prostate cancer patients [4]; 1 h p.i.): 0.7
- SUV mean Kidneys (prostate cancer patients [4]; 1 h p.i.): 15.6
- SUV mean Lacrimal gland (prostate cancer patients [4]; 1 h p.i.): 4.9
- SUV mean Liver (prostate cancer patients [4]; 1 h p.i.): 3.3
- SUV mean Lymph node (prostate cancer patients [4]; 1 h p.i.): 7.1
- SUV mean Nasal mucosa (prostate cancer patients [4]; 1 h p.i.): 2.9
- SUV mean Parotid gland (prostate cancer patients [4]; 1 h p.i.): 10.4
- SUV mean Proximal small intestine (prostate cancer patients [4]; 1 h p.i.): 4.7
- SUV mean Spleen (prostate cancer patients [4]; 1 h p.i.): 4.3
- SUV mean Sublingual gland (prostate cancer patients [4]; 1 h p.i.): 4.6
- SUV mean Submandibular gland (prostate cancer patients [4]; 1 h p.i.): 10
- SUV mean Blood pool, mediastinal (prostate cancer patients [4]; 3 h p.i.): 2.4
- SUV mean Bone metastasis (prostate cancer patients [4]; 3 h p.i.): 6.3
- SUV mean Colon (prostate cancer patients [4]; 3 h p.i.): 4.0
- SUV mean Gluteal muscle (prostate cancer patients [4]; 3 h p.i.): 0.7
- SUV mean Kidneys (prostate cancer patients [4]; 3 h p.i.): 17.0
- SUV mean Lacrimal gland (prostate cancer patients [4]; 3 h p.i.): 5.9
- SUV mean Liver (prostate cancer patients [4]; 3 h p.i.): 2.7
- SUV mean Lymph node (prostate cancer patients [4]; 3 h p.i.): 13.5
- SUV mean Nasal mucosa (prostate cancer patients [4]; 3 h p.i.): 3.4
- SUV mean Parotid gland (prostate cancer patients [4]; 3 h p.i.): 13.1
- SUV mean Proximal small intestine (prostate cancer patients [4]; 3 h p.i.): 5.5
- SUV mean Spleen (prostate cancer patients [4]; 3 h p.i.): 3.5
- SUV mean Sublingual gland (prostate cancer patients [4]; 3 h p.i.): 4.0
- SUV mean Submandibular gland (prostate cancer patients [4]; 3 h p.i.): 12.4
- Specific lysate (internalization) (C4-2 cells; [5]): 15.5 ± 3.1 %IA/10^6 cells
